Source: PMC3486838 (PLoS ONE, 2012)
Read-outs that look alike come from different tables or passages of the source.

Assays:
[1] = biological target: T1, human CYP11B2 (Homo sapiens, UniProt P19099); assay: Inhibition of CYP11B2 in V79 MZh cells expressing the enzyme; format: cell-based; conditions: for SF: selectivity factor = IC50 CYP11B1/IC50 CYP11B2: CYP11B2 over CYP11B1; for IC50: substrate deoxycorticosterone, 100 nM
T1 construct: expressed in transfected cells; host or cells: V79MZh cells
T1 sequence (P19099 25-503): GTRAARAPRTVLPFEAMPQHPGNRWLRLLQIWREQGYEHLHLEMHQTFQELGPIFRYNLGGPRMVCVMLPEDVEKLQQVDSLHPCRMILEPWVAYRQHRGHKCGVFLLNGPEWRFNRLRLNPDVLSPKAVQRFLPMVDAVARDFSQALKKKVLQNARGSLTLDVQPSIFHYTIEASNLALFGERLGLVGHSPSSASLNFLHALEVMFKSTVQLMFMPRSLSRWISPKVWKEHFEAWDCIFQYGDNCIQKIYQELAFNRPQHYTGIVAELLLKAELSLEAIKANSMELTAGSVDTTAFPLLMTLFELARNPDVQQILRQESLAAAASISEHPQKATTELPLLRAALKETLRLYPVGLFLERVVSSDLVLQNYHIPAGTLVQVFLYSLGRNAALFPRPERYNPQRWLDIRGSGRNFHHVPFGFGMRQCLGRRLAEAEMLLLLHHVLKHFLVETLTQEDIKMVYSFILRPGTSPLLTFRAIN
Procedure: (§1) V79MZh cells expressing human CYP11B1 [45] or CYP11B2 [44] were incubated with [^14C]-11-deoxycorticosterone as substrate. The assay was performed as previously described.

[2] = biological target: T2, human CYP11B1 (Homo sapiens, UniProt P15538); assay: Inhibition of CYP11B1 in V79 MZh cells expressing the enzyme; format: cell-based
T2 construct: expressed in transfected cells; host or cells: V79MZh cells
T2 sequence (P15538 25-503): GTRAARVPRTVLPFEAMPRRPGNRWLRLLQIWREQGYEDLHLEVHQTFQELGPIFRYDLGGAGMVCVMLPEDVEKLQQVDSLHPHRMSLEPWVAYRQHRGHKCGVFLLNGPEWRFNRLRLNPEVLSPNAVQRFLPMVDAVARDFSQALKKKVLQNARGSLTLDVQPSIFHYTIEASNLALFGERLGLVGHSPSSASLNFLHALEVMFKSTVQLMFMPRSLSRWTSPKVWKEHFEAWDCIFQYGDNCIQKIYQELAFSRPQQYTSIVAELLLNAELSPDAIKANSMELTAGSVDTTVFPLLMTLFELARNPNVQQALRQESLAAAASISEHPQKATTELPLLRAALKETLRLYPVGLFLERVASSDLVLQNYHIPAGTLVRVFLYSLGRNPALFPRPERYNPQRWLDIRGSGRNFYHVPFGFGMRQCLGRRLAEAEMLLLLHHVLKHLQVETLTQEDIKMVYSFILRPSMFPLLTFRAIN
Procedure: as §1

[3] = biological target: T3, human hepatic enzyme CYP1A2 (Homo sapiens, UniProt P05177); assay: Inhibition of human hepatic CYP1A2, recombinant enzyme (Supersomes); format: biochemical
T3 sequence (P05177 1-516): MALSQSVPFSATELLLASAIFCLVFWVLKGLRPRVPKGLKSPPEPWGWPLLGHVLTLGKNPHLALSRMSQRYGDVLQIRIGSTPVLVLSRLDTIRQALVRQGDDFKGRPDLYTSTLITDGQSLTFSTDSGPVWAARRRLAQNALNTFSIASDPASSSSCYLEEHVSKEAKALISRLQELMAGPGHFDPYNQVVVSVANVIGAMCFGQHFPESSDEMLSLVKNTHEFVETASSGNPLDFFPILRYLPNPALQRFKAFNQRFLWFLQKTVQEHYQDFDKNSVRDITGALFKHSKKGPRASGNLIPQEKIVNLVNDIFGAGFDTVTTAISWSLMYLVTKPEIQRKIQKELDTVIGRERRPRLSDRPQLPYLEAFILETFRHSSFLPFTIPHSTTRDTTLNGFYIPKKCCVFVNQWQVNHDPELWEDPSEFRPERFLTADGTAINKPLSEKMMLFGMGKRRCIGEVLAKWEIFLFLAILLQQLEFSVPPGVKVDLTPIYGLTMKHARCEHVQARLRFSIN

[4] = Hamster fibroblasts (V79 MZh) expressing human CYP11B2, read-out: 11B2 IC50
[5] = Hamster fibroblasts (V79 MZh) expressing human CYP11B1, substrate deoxycorticosterone, 100 nM, read-out: 11B1 IC50
[6] = recombinantly expressed enzyme from baculovirus infected insect microsomes (Supersomes)

SMILES	SF: selectivity factor = IC50 CYP11B1/IC50 CYP11B2 [1]	IC50 [1, 4]	IC50 [2, 5]	CYP1A2 inhibition at 2 µM [3]	IC50 [3, 6]	melting point	IC50 ([3]; recombinant CYP1A2)	IC50 ([1]; 11B2 IC50, Hamster fibroblasts (V79 MZh) expressing human CYP11B2)	IC50 [2]
CC12CCC(c3cccnc3)=CC1=CCCC2=O (racemic) [Compound 17, (±)-8a-Methyl-6-pyridin-3-yl-3,7,8,8a-tetrahydro-2H-naphthalen-1-one]	2	462 ± 36 nM	1020 ± 78 nM						
c1cncc(C2CCC3CCCCC3C2)c1 (stereo not drawn) [Compound 1, 3-(Decahydro-naphthalen-2-yl)-pyridine]	4	157 ± 14 nM	611 ± 34 nM						
O=C1CC2C=C(c3cccnc3)CC2C1 (stereo not drawn) [Compound 2, 5-Pyridin-3-yl-3,3a,4,6a-tetrahydro-1H-pentalen-2-one]	8	34 ± 5 nM	282 ± 17 nM	no inhibition	> 100000 nM				
O=C1CC2CC(c3cccnc3)CC2C1 (stereo not drawn) [Compound 3, 5-Pyridin-3-yl-hexahydro-pentalen-2-one]		258 ± 22 nM	306 ± 25 nM						
C=C1CC2C=C(c3cccnc3)CC2C1 (stereo not drawn) [Compound 4, 3-(5-Methylidene-1,3a,4,5,6,6a-hexahydro-pentalen-2-yl)-pyridine]	34	6 ± 2 nM	205 ± 12 nM		2170 ± 97 nM				
OC1CC2C=C(c3cccnc3)CC2C1 (stereo not drawn) [Compound 5, 5-Pyridin-3-yl-1,2,3,3a,4,6a-hexahydro-pentalen-2-ol]	3	225 ± 21 nM	663 ± 27 nM			110 to 112 °C			
OC1CC2CC(c3cccnc3)CC2C1 (stereo not drawn) [Compound 6, 5-Pyridin-3-yl-octahydro-pentalen-2-ol]	0.4	347 ± 35 nM	133 ± 29 nM						
O=C1CCC=C(c2cccnc2)CCC1 [Compound 7, 5-Pyridin-3-yl-cyclooct-4-enone]	4	205 ± 16 nM	851 ± 58 nM						
O=C1CCCC(c2cccnc2)CCC1 [Compound 8, 5-Pyridin-3-yl-cyclooctanone]	3	443 ± 36 nM	1350 ± 79 nM						
OC1CCC=C(c2cccnc2)CCC1 (stereo not drawn) [Compound 9, 5-Pyridin-3-yl-cyclooct-4-enol]	2	141 ± 11 nM	348 ± 25 nM						
OC1CCCC(c2cccnc2)CCC1 (stereo not drawn) [Compound 10, (endo/exo)-5-Pyridin-3-yl-cyclooctanol]		294 ± 23 nM	246 ± 36 nM						
C1=C(c2cccnc2)CCCCCC1 [Compound 11, 3-Cyclooct-1-enyl-pyridine]	2	81 ± 7 nM	195 ± 15 nM		> 100000 nM				
c1cncc(C2CCCCCCC2)c1 [Compound 12, 3-Cyclooctyl-pyridine]	50	21 ± 5 nM	1050 ± 67 nM	no inhibition	> 100000 nM				
C1=C(c2cccnc2)CCCCCCCC1 [Compound 13, 3-Cyclodec-1-enyl-pyridine]	12	21 ± 3 nM	258 ± 16 nM	no inhibition	> 100000 nM				
c1cncc(C2CCCCCCCCC2)c1 [Compound 14, 3-Cyclodecyl-pyridine]	40	22 ± 2 nM	872 ± 79 nM		> 100000 nM				
C1=C(c2cccnc2)CCCCCCCCCC1 [Compound 15, 3-Cyclododec-1-enyl-pyridine]		1170 ± 97 nM	> 10000 nM						
c1cncc(C2CCCCCCCCCCC2)c1 [Compound 16, 3-Cyclododecyl-pyridine]	3	636 ± 32 nM	1770 ± 56 nM						
C1=C(c2cccnc2)C2CCC1C2 (stereo not drawn) [Compound 18, 3-Bicyclo[2.2.1]hept-2-en-2-yl-pyridine]	3	889 ± 57 nM	2130 ± 113 nM						
c1cncc(C2CC3CCC2C3)c1 (stereo not drawn) [Compound 19, (endo/exo)-3-Bicyclo[2.2.1]hept-2-yl-pyridine]		99 ± 21 nM	137 ± 12 nM		44430 ± 388 nM		44000 nM		
CN1C2C=C(c3cccnc3)CC1CC2 (stereo not drawn) [Compound 20, 8-Methyl-3-pyridin-3-yl-8-aza-bicyclo[3.2.1]oct-2-ene]		2440 ± 88 nM	> 5000 nM						
CN1C2CCC1CC(c1cccnc1)C2 (stereo not drawn) [Compound 21, (endo/exo)-8-Methyl-3-pyridin-3-yl-8-aza-bicyclo[3.2.1]octane]								2830 ± 135 nM	> 10000 nM
COc1ccc2cc(-c3cccnc3)ccc2c1 [I, reference compound]					41 ± 5 nM				
COC1CCc2cc(-c3cccnc3)ccc2C1 (stereo not drawn) [II, reference compound]	347	3 ± 1 nM	1140 ± 78 nM		440 ± 11 nM				
COc1ccc2c(c1)CC(C)C(c1cccnc1)=C2 (stereo not drawn) [III, reference compound]	79	3 ± 1 nM	248 ± 19 nM		741 ± 55 nM				
